Experimental data published in patent publication US20250368633A1, “AZEPINE FUSED RING COMPOUND AS RIPK1 INHIBITOR AND USE THEREOF” (ARTIVILA BIOPHARMA, priority 2022, published 2025).
pEC50: −log10 of the molar value.

Key:
[1] = test system: U937 cells; test: EC50 of necroptosis inhibition in U937 cells (TSZ-induced, CellTiter-Glo); assay type: cell-based; conditions: Homo sapiens, U-937; TSZ (hTNF-α, SM-164, Z-VAD-FMK) 20 hours; 10 concentration points; read-out: EC50 intervals of necroptosis inhibition in U937 cells
How it was run: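 U937 cells pretreated 15 min with compound (10-point, 1:3 series), then necroptosis induced by TSZ (hTNF-α, SM-164, Z-VAD-FMK) for 20 h at 37 °C. Viability measured as ATP by CellTiter-Glo luminescence; inhibition normalised to untreated and TSZ-only wells, EC50 from four-parameter fit.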

[2] = biological target: T1, RIPK1 kinase (Homo sapiens, UniProt Q13546); test: In vitro RIPK1 kinase activity assay (ADP-Glo), inhibition by compounds at 1 μM; assay type: biochemical; conditions: compound 1 μM; ATP 10 μM; MBP substrate 100 μg/mL; read-out: RIPK1 kinase activity inhibition rate range
T1 construct: purchased Promega VA7593
T1 sequence (Q13546 1-671): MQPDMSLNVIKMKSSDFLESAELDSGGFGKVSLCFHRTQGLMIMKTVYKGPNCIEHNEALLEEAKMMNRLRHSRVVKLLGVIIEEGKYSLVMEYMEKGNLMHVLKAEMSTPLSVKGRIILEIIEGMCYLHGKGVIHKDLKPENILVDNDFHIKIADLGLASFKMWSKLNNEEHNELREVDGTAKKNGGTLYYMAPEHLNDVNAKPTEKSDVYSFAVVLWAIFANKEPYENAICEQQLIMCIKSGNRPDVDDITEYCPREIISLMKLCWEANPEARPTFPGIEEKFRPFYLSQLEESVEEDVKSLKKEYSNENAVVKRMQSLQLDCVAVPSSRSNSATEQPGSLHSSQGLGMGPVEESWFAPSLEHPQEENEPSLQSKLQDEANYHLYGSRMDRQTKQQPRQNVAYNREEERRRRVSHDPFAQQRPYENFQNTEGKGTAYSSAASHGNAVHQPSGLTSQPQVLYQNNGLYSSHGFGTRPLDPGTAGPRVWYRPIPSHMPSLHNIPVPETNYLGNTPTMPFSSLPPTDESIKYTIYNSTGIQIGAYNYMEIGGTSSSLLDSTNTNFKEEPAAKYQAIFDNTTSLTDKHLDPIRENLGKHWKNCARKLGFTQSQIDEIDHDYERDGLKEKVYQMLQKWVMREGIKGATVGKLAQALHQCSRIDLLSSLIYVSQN
How it was run: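 Compound and RIPK1 were preincubated 15 min at room temperature, then reacted 1 h with 10 μM ATP and 100 μg/mL MBP substrate in kinase buffer D. ADP formed was measured by ADP-Glo luminescence and converted to percent inhibition of kinase activity.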

Row | Compound | pEC50 [1] | inhibition at 1 µM [2]
1 | CN1C(=O)[C@@H](NC(=O)C(=O)NCCc2cccc(F)c2)COc2ccc(C#CC(C)(C)O)cc21 [Example 42, (S)—N^1-(3-fluorophenethyl)-N^2-(7-(3-hydroxy-3-methylbut-1-yn-1-yl)-5-methyl-4-oxo-2,3,4,5-tetrahydrobenzo[b][1,4]oxazepin-3-yl)oxalamide] | > 7.00 | ≥ 75%
2 | CN1C(=O)[C@@H](NC(=O)C(=O)NCCc2ccccc2)COc2ccc(C#CC3(O)COC3)cc21 [Example 43, (S)—N^1-(7-((3-hydroxyoxetan-3-yl)ethynyl)-5-methyl-4-oxo-2,3,4,5-tetrahydrobenzo[b][1,4]oxazepin-3-yl)-N^2-phenethyloxalamide] | > 7.00 | ≥ 75%
3 | CN1C(=O)[C@@H](NC(=O)C(=O)NCCc2ccccc2)COc2ccc(C#CC3(O)CCCCC3)cc21 [Example 44, (S)—N^1-(7-((1-hydroxycyclohexyl)ethynyl)-5-methyl-4-oxo-2,3,4,5-tetrahydrobenzo[b][1,4]oxazepin-3-yl)-N^2-phenethyloxalamide] | > 7.00 | 50 to 74%
4 | C/C(C#Cc1ccc2c(c1)N(C)C(=O)[C@@H](NC(=O)C(=O)NCCc1ccccc1)CO2)=C/CO [Example 45, (S,Z)-N^1-(7-(5-hydroxy-3-methylpent-3-en-1-yn-1-yl)-5-methyl-4-oxo-2,3,4,5-tetrahydrobenzo[b][1,4]oxazepin-3-yl)-N^2-phenethyloxalamide] | > 7.00 | ≥ 75%
5 | CN1C(=O)[C@@H](NC(=O)C(=O)NCCc2ccccc2)COc2ccc(C#CCN3CCC(O)C3)cc21 (stereo partly drawn) [Example 46, N^1-((3S)-7-(3-(3-hydroxypyrrolidin-1-yl)prop-1-yn-1-yl)-5-methyl-4-oxo-2,3,4,5-tetrahydrobenzo[b][1,4]oxazepin-3-yl)-N^2-phenethyloxalamide] | > 7.00 | ≥ 75%
6 | CN1C(=O)[C@@H](NC(=O)C(=O)NCCc2ccccc2)COc2ccc(C#CCN3CCC(=O)CC3)cc21 [Example 47, (S)—N^1-(5-methyl-4-oxo-7-(3-(4-oxopiperidin-1-yl)prop-1-yn-1-yl)-2,3,4,5-tetrahydrobenzo[b][1,4]oxazepin-3-yl)-N^2-phenethyloxalamide] | > 7.00 | ≥ 75%
7 | CN1C(=O)[C@@H](NC(=O)C(=O)NCCc2ccccc2)COc2ccc(C#CCN3CCOCC3)cc21 [Example 48, (S)—N^1-(5-methyl-7-(3-morpholinoprop-1-yn-1-yl)-4-oxo-2,3,4,5-tetrahydrobenzo[b][1,4]oxazepin-3-yl)-N^2-phenethyloxalamide] | > 7.00 | 50 to 74%
8 | CN1C(=O)[C@@H](NC(=O)C(=O)NCCc2ccccc2)COc2ccc(C#CCCN)cc21 [Example 50, (S)—N^1-(7-(4-aminobut-1-yn-1-yl)-5-methyl-4-oxo-2,3,4,5-tetrahydrobenzo[b][1,4]oxazepin-3-yl)-N^2-phenethyloxalamide] | > 7.00 | ≥ 75%
9 | CN1C(=O)[C@@H](NC(=O)C(=O)NCCc2ccccc2)COc2ccc(C#CCCNS(C)(=O)=O)cc21 [Example 51, (S)—N^1-(5-methyl-7-(4-(methylsulfonamido)but-1-yn-1-yl)-4-oxo-2,3,4,5-tetrahydrobenzo[b][1,4]oxazepin-3-yl)-N^2-phenethyloxalamide] | > 7.00 | 25 to 49%
10 | COCC#Cc1ccc2c(c1)N(C)C(=O)[C@@H](NC(=O)C(=O)NCCc1ccccc1)CO2 [Example 52, (S)—N^1-(7-(3-methoxyprop-1-yn-1-yl)-5-methyl-4-oxo-2,3,4,5-tetrahydrobenzo[b][1,4]oxazepin-3-yl)-N^2-phenethyloxalamide] | > 7.00 | ≥ 75%
11 | CN1C(=O)C(NC(=O)C(=O)NCCc2ccccc2)CCc2ccc(Br)cc21 (stereo not shown) [Example 61, N^1-(8-bromo-1-methyl-2-oxo-2,3,4,5-tetrahydro-1H-benzo[b]azepin-3-yl)-N^2-phenethyloxalamide] | > 7.00 | ≥ 75%
12 | CN1C(=O)C(NC(=O)C(=O)NCCc2ccccc2)CCc2ccc(C#CC3CC3)cc21 (stereo not shown) [Example 62, N^1-(8-(cyclopropylethynyl)-1-methyl-2-oxo-2,3,4,5-tetrahydro-1H-benzo[b]azepin-3-yl)-N^2-phenethyloxalamide] | > 7.00 | ≥ 75%
13 | CN1C(=O)C(NC(=O)C(=O)NCCc2ccccc2)CCc2ccc(C#CCCO)cc21 (stereo not shown) [Example 65, N^1-(8-(4-hydroxybut-1-yn-1-yl)-1-methyl-2-oxo-2,3,4,5-tetrahydro-1H-benzo[b]azepin-3-yl)-N^2-phenethyloxalamide] | > 7.00 | ≥ 75%
14 | CN1C(=O)C(NC(=O)C(=O)NCCc2ccccc2)CCc2ccc(C#CC3CCNCC3)cc21 (stereo not shown) [Example 66, N^1-(1-methyl-2-oxo-8-(piperidin-4-ylethynyl)-2,3,4,5-tetrahydro-1H-benzo[b]azepin-3-yl)-N^2-phenethyloxalamide] | > 7.00 | 50 to 74%
15 | CN1C(=O)[C@@H](NC(=O)C(=O)NCCc2ccccc2)COc2ccc(C#CC3CCN(CC#N)CC3)cc21 [Example 74, (S)—N^1-(7-((1-(cyanomethyl)piperidin-4-yl)ethynyl)-5-methyl-4-oxo-2,3,4,5-tetrahydrobenzo[b][1, 4]oxazepin-3-yl)-N^2-phenethyloxalamide] | > 7.00 | 50 to 74%
16 | CN1C(=O)[C@@H](NC(=O)C(=O)NCCc2ccccc2)COc2ccc(C#CC3COC3)cc21 [Example 76, (S)—N^1-(5-methyl-7-(oxetan-3-ylethynyl)-4-oxo-2,3,4,5-tetrahydrobenzo[b][1,4]oxazepin-3-yl)-N^2-phenethyloxalamide] | > 7.00 | 50 to 74%
17 | CN1C(=O)[C@H](NC(=O)C(=O)NCCc2ccccc2)COc2ccc(C#CC3(O)COC3)cc21 [Example 77, (R)—N^1-(7-((3-hydroxyoxetan-3-yl)ethynyl)-5-methyl-4-oxo-2,3,4,5-tetrahydrobenzo[b][1,4]oxazepin-3-yl)-N^2-phenethyloxalamide] | > 7.00 | 50 to 74%
18 | COC1(C#Cc2ccc3c(c2)N(C)C(=O)[C@@H](NC(=O)C(=O)NCCc2ccccc2)CO3)COC1 [Example 78, (S)—N^1-(7-((3-methoxyoxetan-3-yl)ethynyl)-5-methyl-4-oxo-2,3,4,5-tetrahydrobenzo[b][1,4]oxazepin-3-yl)-N^2-phenethyloxalamide] | > 7.00 | 50 to 74%
19 | CN1C(=O)[C@@H](NC(=O)C(=O)NCCc2ccccc2)COc2ccc(C#CCC3(O)COC3)cc21 [Example 79, (S)—N^1-(7-(3-(3-hydroxyoxetan-3-yl)prop-1-yn-1-yl)-5-methyl-4-oxo-2,3,4,5-tetrahydrobenzo[b][1,4]oxazepin-3-yl)-N^2-phenethyloxalamide] | > 7.00 | 50 to 74%
20 | CN1C(=O)[C@@H](NC(=O)C(=O)NCCc2ccccc2)COc2ccc(C#CC3(O)CCOC3)cc21 (stereo partly drawn) [Example 80, N^1-((3S)-7-((3-hydroxytetrahydrofuran-3-yl)ethynyl)-5-methyl-4-oxo-2,3,4,5-tetrahydrobenzo[b][1,4]oxazepin-3-yl)-N^2-phenethyloxalamide] | > 7.00 | ≥ 75%
21 | CN1C(=O)[C@@H](NC(=O)C(=O)NCCc2ccccc2)COc2ccc(C#CCN3CCC(O)CC3)cc21 [Example 81, (S)—N^1-(7-(3-(4-hydroxypiperidin-1-yl)prop-1-yn-1-yl)-5-methyl-4-oxo-2,3,4,5-tetrahydrobenzo[b][1,4]oxazepin-3-yl)-N^2-phenethyloxalamide] | > 7.00 | ≥ 75%
22 | CN1C(=O)[C@@H](NC(=O)C(=O)NCCc2ccccc2)COc2ccc(C#CCN3C(=O)CCC3=O)cc21 [Example 84, (S)—N^1-(7-(3-(2,5-dioxopyrrolidin-1-yl)prop-1-yn-1-yl)-5-methyl-4-oxo-2,3,4,5-tetrahydrobenzo[b][1,4]oxazepin-3-yl)-N^2-phenethyloxalamide] | > 7.00 | ≥ 75%
23 | CN1C(=O)[C@@H](NC(=O)C(=O)NCCc2ccccc2)COc2ccc(C#CCN3CCNC(=O)C3)cc21 [Example 85, (S)—N^1-(5-methyl-4-oxo-7-(3-(3-oxopiperazin-1-yl)prop-1-yn-1-yl)-2,3,4,5-tetrahydrobenzo[b][1, 4]oxazepin-3-yl)-N^2-phenethyloxalamide] | > 7.00 | ≥ 75%
